Source: patent US20030208035A1, “Antifungal and/or antibacterial peptides, preparation methods, compositions containing same and methods of treating mammals and/or plants” (priority 2000, published 2003)
Values after ≈ are worked out from the molar mass of the structure shown. Bridges are numbered along the chain shown (N, C = ends). Where no end group is shown, it is not given here.

How the values were obtained:
S. prolificans = assay: Test to detect activity against filamentous fungi (MIC); type: cell-based
Procedure: (§1) The antifungal activity was detected by a growth inhibition test in a liquid medium.
(§2) The filamentous fungi (A. fumigatus, A. flavus and A. terreus, donated by Dr. H. Koenig, Hôpital Civil, Strasbourg; and S. prolificans and F. solani donated by Drs. J. Meis and J. Mouton, University hospital, Microbioolgy Department, Nijmegen, Netherlands) were seeded on Malt-Agar slant gelose (Biomerieux) and incubated 7 days at 37° C.
(§3) The spores were then collected with 10 ml YPG medium containing 0.05% Tween 20 and filtered through a gauze. The spores were centrifuged 10 min at 1700 rpm, the residue was collected in YPG (1 g Yeast extract, 1 g Peptone, 3 g Glucose per 1 l).
(§4) The suspension was counted with a Coverslide and adjusted to 10^4 spores/ml.
(§5) 100 μl of peptide dilutions (concentration of 50 with 0.097 μg/ml peptide) were deposited in microtitration plates. 100 μl with 10^4 spores/ml of filamentous fungi, i.e. 1000 spores, were then added.
(§6) The test plates were incubated 48 h at 37° C.
(§7) Determination of minimum inhibiting concentrations (MIC) was made by observing well cover rate. The MIC score was set at 50% well covering.

F. solani = assay: as above; type: cell-based; details: F. solani FFUS 8591
Procedure: as §1, §2, §3, §4, §5, §6, §7

A. fumigatus = type: cell-based; details: A. fumigatus FASF 5161
Procedure: as §1, §2, §3, §4, §5, §6, §7

[1] = tested on: fluconazole-resistant C. albicans; assay: microbe, parasite or virus in culture; type: cell-based, Candida albicans
Procedure: (§8) Candida yeasts (C. albicans, C. glabrata, C. dubliensis, C. tropicalis, C. kefyr, C. krusei and C. parapsilosis—donated by Dr. H. Koenig, Hôpital Civil, Strasbourg), fluconazole-resistant C. albicans (n^o245962, n^o2332, n^o246335 and n^o3552, donated by Drs. J.Meis and J. Mouton, University Hospital, Microbiology Department, Nijmegen, Netherlands), and Cryptoccocus neoformans (donated by Dr. H. Koenig, Hôpital Civil, Strasbourg) were seeded on Sabouraud-Cloramphenicol Agar slant gelose (Biomerieux) and left to incubate for 24 h at 30° C. (Candida sp.) and for 72 h at 37° C. (Cryptoccocus neoformans).
(§9) Some yeast colonies were placed in suspension in liquid Sabouraud medium (Biomerieux) to obtain a final concentration of 0.1 OD at 600 nm corresponding to 2.5.10^6 yeasts/ml.
(§10) The yeast suspension was adjusted to 5.10^3 yeast/ml in Sabouraud medium.
(§11) 100 μl of peptide dilutions (concentration of 50 with 0.097 μg/ml peptide) were deposited in microtitration plates. After adding […] of yeast suspension with 5.10^3 yeast/ml i.e. 500 yeasts, the test plates were incubated 24 h at 30° C. (Candida) under slow shaking or 72 h at 37° C. (Cryptoccocus).
(§12) Determination of minimal inhibiting concentrations (MIC) was made by measuring absorbency at 600 nm using a spectrophotometer-microtitration plate reader. The MIC score was set at a growth inhibition rate of 50%.

C. albicans = type: cell-based, Candida albicans; details: 24 h
Procedure: as §8, §9, §10, §11, §12

Aspergillus fumigatus = assay: anti-Aspergillus fumigatus growth inhibition test in liquid medium (96-well microplates); type: cell-based; details: fold relative to Ard1
Procedure: (§13) The anti-Candida albicans and anti-Aspergillus fumigatus activities of the different analogues were assessed using a growth inhibition test in liquid medium made in 96-well microplates. The activity of the purified peptides was tested for different dilutions of each peptide and was compared with those of heliomycin and Ard1 quantified under the same conditions.
The spores of Aspergillus fumigatus were derived from a stock frozen at −80° C., containing 10^7 spores/ml in a 25% glycerol solution. After slow thawing at room temperature, the spores were placed in suspension in PDB culture medium (12 g Potato Dextrose Broth medium, per […] water). 10 μl of each sample were deposited in the wells of microtitration plates in the presence of 90 μl PDB culture medium supplemented with tetracycline (100 μg/ml) and cefotaxime (1 μg/ml) containing the spores (at a final concentration of 1000 spores/well). Control cultures were systematically made in which 10 μl of sample were replaced by 10 μl of sterile water. Media sterility was controlled by incubating 10 μl sterile water in the presence of 90 μl of medium. The samples were incubated at 37° C. for 24 h to 48 h in a humid atmosphere, and the antifungal activity was quantified by a score of 0 to 9 taking germination account; the size and morphology of the hyphs were determined under the binocular microscope. […].

C. tropicalis = type: cell-based
Procedure: as §8, §9, §10, §11, §12

C. parapsilosis = type: cell-based
Procedure: as §8, §9, §10, §11, §12

C. krusei = type: cell-based
Procedure: as §8, §9, §10, §11, §12

C. kefyr = type: cell-based
Procedure: as §8, §9, §10, §11, §12

C. glabrata = type: cell-based
Procedure: as §8, §9, §10, §11, §12

Candida albicans = assay: anti-Candida albicans growth inhibition test in liquid medium (96-well microplates); type: cell-based; details: fold relative to Ard1
Procedure: as §13
The activity test was made directly on yeasts derived from a stock frozen at −80° C., in Sabouraud medium containing 15% glycerol. The density of the yeasts in the stock was adjusted to an optical density of 0.4 OD at 600 nm. After slow thawing at room temperature, the yeast suspension was reduced by dilution to an optic density of 1 mOD at 600 nm in Sabouraud medium, and 90 μl of this dilution were deposited in the wells of microtitration plates in the presence of 10 μl of sample to be tested. Control samples were systematically made in which 10 μl of sample were replaced by 10 μl of sterile water. Media sterility was controlled by incubating 10 μl sterile water in the presence of 90 μl of medium. The samples were incubated at 30° C. for 40 h under slight stirring and the antifungal activity was quantified by measuring optic density at 600 nm.

Neurospora crassa = type: cell-based; details: 48 h
Procedure: (§14) 100 μl of peptide dilutions (concentration 50 with 0.097 mg/ml peptide) were deposited in microtitration plates.
(§15) After adding 100 μl of frozen spores with 10^4 spores/ml of A. brassicola and N. crassa (donated by Dr. Bullet, IBMC, Strasbourg) the test plates were incubated 48 h at 30° C.
(§16) Determination of minimal inhibiting concentrations (MIC) was made by observing well cover rate. The MIC was set at 50% well covering.

Alternaria brassicola = type: cell-based; details: 48 h
Procedure: as §14, §15, §16

Row | Molecule | MIC (S. prolificans; S. prolificans FSSP 7902) [µg/mL] | MIC (S. prolificans; S. prolificans FSSP 7908) [µg/mL] | MIC (F. solani) [µg/mL] | MIC (A. fumigatus) [µg/mL] | MIC ([1]; fluconazole-resistant C. albicans n° 2332) [µg/mL] | MIC ([1]; fluconazole-resistant C. albicans n° 245962) [µg/mL] | MIC ([1]; fluconazole-resistant C. albicans n° 246335) [µg/mL] | MIC (C. albicans) [µg/mL] | Activity A.f. (relative activity in relation to Ard1) (Aspergillus fumigatus) | MIC (C. tropicalis) [µg/mL] | MIC (C. parapsilosis) [µg/mL] | MIC (C. krusei) [µg/mL] | MIC (C. kefyr) [µg/mL] | MIC (C. glabrata) [µg/mL] | Activity C.a. (relative activity in relation to Ard1) (Candida albicans) | MIC (Neurospora crassa) [µg/mL] | MIC (Alternaria brassicola) [µg/mL]
1 | C[C@@H]1[C@H](O)[C@@H](C)/C=C/C=C/C=C/C=C/C=C/C=C/C=C/[C@H](O[C@@H]2O[C@H](C)[C@@H](O)[C@H](N)[C@@H]2O)C[C@@H]2O[C@](O)(C[C@@H](O)C[C@@H](O)[C@H](O)CC[C@@H](O)C[C@@H](O)CC(=O)O[C@H]1C)C[C@H](O)[C@H]2C(=O)O [ampho B, Amphotericin B] | > 16 | > 16 | > 16 | 0.5 (≈ 0.541 µM) | 0.25 (≈ 0.271 µM) | 0.125 (≈ 0.135 µM) | 0.0625 (≈ 0.0676 µM) |  |  |  |  |  |  |  |  |  | 
2 | DKLIGSCVWGAVNYTSNCNAECKRRGYKGGHCGSFLNVNCWCER (disulfide 7-32, 18-40, 22-42 (inferred)) [pEM48] |  |  |  |  |  |  |  | 1.56 | 1-2 | 3.125 | 0.78 | 1.56 | 25 | >25 | 6-12 | 0.39 | 12.5
